Test results as given in the NIST ThermoML archive (doi:10.1016/j.jct.2009.03.010).
± gives the expanded uncertainty stated by the source.

Legend:
[1] = Molar enthalpy of transition or fusion; details: Crystal; DSC
[2] = Crystal; DTA
[3] = molar heat capacity at constant pressure; details: 101.33 kPa, Crystal

c1cc2ccc3ccc4ccc5ccc6ccc1c1c2c3c4c5c61 [coronene]
Details | Molar enthalpy of transition or fusion [kJ/mol] | Normal melting temperature [°C]
[1] | 21.2 ± 1.5 | –
[2] | – | 436 ± 1.6

molar heat capacity at constant pressure [J/K/mol], [3]
Details | DSC | Small sample (50 mg) DSC
295 K | – | 312.97 ± 6.3
298.15 K | 317.46 ± 14 | 317.17 ± 6.3
300 K | – | 318.97 ± 6.4
310 K | – | 333.99 ± 6.7
320 K | – | 344.5 ± 6.9
330 K | – | 355.32 ± 7.1
340 K | – | 366.43 ± 7.3
350 K | – | 373.94 ± 7.5
360 K | – | 383.85 ± 7.7
370 K | – | 394.66 ± 7.9
380 K | – | 405.18 ± 8.1
410 K | – | 417.19 ± 8.3
420 K | – | 422.3 ± 8.4
430 K | – | 435.51 ± 8.7
440 K | – | 439.12 ± 8.8
450 K | – | 447.82 ± 9
460 K | – | 453.83 ± 9.1
470 K | – | 463.44 ± 9.3
478 K | – | 470.65 ± 9.4
